Measurements: PMC13031062 (Acta Pharmaceutica Sinica. B, 2025)
Where two headings read alike, the source gives them in different places.

Experiments:
[1] = target: T1, acyl-CoA synthetase long-chain family member 3 (ACSL3) (Homo sapiens, UniProt O95573); assay: LC-MS of OA-CoA formed by recombinant ACSL3; assay type: biochemical
[2] = target: T1, acyl-CoA synthetase long-chain family member 3 (ACSL3); assay: microscale thermophoresis; assay type: binding
[3] = target: T1, acyl-CoA synthetase long-chain family member 3 (ACSL3); assay: microscale thermophoresis; assay type: binding; remark: listed apart in the source
[4] = target: T1, acyl-CoA synthetase long-chain family member 3 (ACSL3); assay: microscale thermophoresis; assay type: binding; remark: listed apart in the source

T1 sequence (O95573 whole entry): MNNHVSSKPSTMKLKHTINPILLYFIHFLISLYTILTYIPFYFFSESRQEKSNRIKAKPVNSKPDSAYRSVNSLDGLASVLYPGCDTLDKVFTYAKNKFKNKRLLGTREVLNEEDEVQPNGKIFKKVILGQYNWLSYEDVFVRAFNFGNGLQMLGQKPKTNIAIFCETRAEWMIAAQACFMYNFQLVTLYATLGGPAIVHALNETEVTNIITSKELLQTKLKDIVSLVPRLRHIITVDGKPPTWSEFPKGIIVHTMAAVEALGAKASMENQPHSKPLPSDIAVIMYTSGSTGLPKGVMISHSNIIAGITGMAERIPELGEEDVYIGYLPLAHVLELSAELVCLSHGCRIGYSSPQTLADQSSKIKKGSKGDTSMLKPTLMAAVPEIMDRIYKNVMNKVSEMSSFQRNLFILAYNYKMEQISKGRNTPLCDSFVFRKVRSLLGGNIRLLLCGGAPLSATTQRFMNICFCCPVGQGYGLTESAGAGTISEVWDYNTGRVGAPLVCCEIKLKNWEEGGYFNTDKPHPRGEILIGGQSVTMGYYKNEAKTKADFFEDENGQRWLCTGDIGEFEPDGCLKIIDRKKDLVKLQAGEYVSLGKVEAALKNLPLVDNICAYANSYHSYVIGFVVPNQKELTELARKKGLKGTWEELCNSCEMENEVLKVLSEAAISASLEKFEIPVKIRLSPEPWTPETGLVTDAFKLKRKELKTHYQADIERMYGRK

In the case of `CCCCCCCC/C=C\CCCCCCCC(=O)O` [OA, oleic acid], the “LC-MS of OA-CoA formed by recombinant ACSL3” value [1] is reported as “VA analogues promoted acylation reaction with OA as substrate in the presence of ACSL3”.

With `CNC(=O)/C=C(C)/C=C/C=C(C)/C=C/C1=C(C)CCCC1(C)C` [D3, (2E,4E,6E,8E)-N,3,7-trimethyl-9-(2,6,6-trimethylcyclohex-1-en-1-yl)nona-2,4,6,8-tetraenamide] the Kd [2] was 1280 nM.

With `CC1=C(/C=C/C(C)=C/C=C/C(C)=C/C(=O)O)C(C)(C)CCC1` [ATRA, all-trans retinoic acid] the Kd [3] was 12800 nM.

Work on `CC1=C(/C=C/C(C)=C/C=C/C(C)=C/CO)C(C)(C)CCC1` [VA, vitamin A] yielded a Kd [4] of 1850 nM.
